The record followed here is patent publication US20240366770A1, “DEGRADATION OF BRUTON'S TYROSINE KINASE (BTK) BY CONJUGATION OF BTK INHIBITORS WITH E3 LIGASE LIGAND AND METHODS OF USE” (BeiGene Switzerland GmbH, priority 2021, published 2024).

The test system of one experiment is HEK-293 cells. In words: HEK-293 cytotoxicity detection (CellTiter-Glo). Type of experiment: cell-based. As to conditions: Homo sapiens; HEK-293 cells, 72 h incubation, CellTiter-Glo luminescence, IC50 of cell proliferation inhibition; read-out: HEK293. As to the method: HEK-293 cells were treated with compounds diluted in 0.2% DMSO, dilution was done according to the following protocol: (1) making 500× stock solution in DMSO from 5 mM by 4-fold dilution, total 8 doses were included; (2) making 2× solution in cell culture medium by transferring 0.5 ul 500× stock solution into 125 μl medium; (3) adding 50 μl of 2× solution to cells for incubation of 72 h.
25 μl of the CellTiter-Glo®Reagent [(Promega) -Cat No. G7572] was added to each well in the 96-well plate. The contents were mixed for 2 minutes on an orbital shaker to induce cell lysis. The plate was then allowed to incubate at room temperature for 10 minutes to stabilize luminescent signal. Luminescence was recorded on BMG PheraStar with luminescence protocol.
The IC50 value of a compound can be obtained by fitting the following equation
(§1) Wherein, X and Y are known values, and IC50, Hillslope, Top and Bottom are the parameters obtained by fitting with software. Y is the inhibition percentage (calculated from the equation), X is the concentration of the compound; IC50 is the concentration of the compound when the 50% inhibition is reached. The smaller the IC50 value is, the stronger the inhibitory ability of the compound is. Vice versa, the higher the IC50 value is, the weaker the ability the inhibitory ability of the compound is; Hillslope represents the slope of the fitted curve, generally around 1 *; Bottom represents the minimum value of the curve obtained by data fitting, which is generally 0%±20%; Top represents the maximum value of the curve obtained by data fitting, which is generally 100%±20%. The experimental data were fitted by calculating and analyzing with Dotmatics data analysis software.
A general note: ATP-based viability assays read luminescence as a measure of living cells.

Another experiment has as its target T1, BTK (Homo sapiens, UniProt Q06187).
T1 construct: High control=Cell group with added DMSO and without compound, indicating microplate readings without BTK degradation; endogenous in cells; host or cells: TMD-8
Put plainly: BTK degradation in TMD-8 cells (HTRF assay). As to conditions: 6 h treatment, IC50 (DC50) of BTK degradation. In kind it is cell-based. How it is done: TMD-8 cells were treated with compounds diluted in 0.2% DMSO, dilution was done according to the following protocol: (1) making 500× stock solution in DMSO from 1 mM by 6-fold dilution, total 8 doses were included; (2) making 2× solution in cell culture medium by transferring 0.5 μl 500× stock solution into 125 μl medium; (3) adding 15 μl of 2× solution to cells for incubation of 6 h.
After 6 h treatment, 10 μl 4× lysis buffer was added to each well; the plate was sealed and incubated for 30 min at room temperature on a plate shaker; Once the cells was lysed, 16 μL of cell lysate were transferred to a PE 384-well HTRF detection plate; 4 μL of pre-mixed HTRF antibodies were added to each well; the plate was covered with a plate sealer, and then spinned at 1000 rpm for 1 min, then incubated overnight at room temperature; the results were read on BMG PheraStar with HTRF protocol (337 nm-665 nm-620 nm).
The IC50 (DC50) value of a compound can be obtained by fitting the following equation
as §1, with “wherein,” for “Wherein,”
Background: Time-resolved FRET reads energy transfer from a long-lived donor to a nearby acceptor.

T1 sequence (Q06187 whole entry): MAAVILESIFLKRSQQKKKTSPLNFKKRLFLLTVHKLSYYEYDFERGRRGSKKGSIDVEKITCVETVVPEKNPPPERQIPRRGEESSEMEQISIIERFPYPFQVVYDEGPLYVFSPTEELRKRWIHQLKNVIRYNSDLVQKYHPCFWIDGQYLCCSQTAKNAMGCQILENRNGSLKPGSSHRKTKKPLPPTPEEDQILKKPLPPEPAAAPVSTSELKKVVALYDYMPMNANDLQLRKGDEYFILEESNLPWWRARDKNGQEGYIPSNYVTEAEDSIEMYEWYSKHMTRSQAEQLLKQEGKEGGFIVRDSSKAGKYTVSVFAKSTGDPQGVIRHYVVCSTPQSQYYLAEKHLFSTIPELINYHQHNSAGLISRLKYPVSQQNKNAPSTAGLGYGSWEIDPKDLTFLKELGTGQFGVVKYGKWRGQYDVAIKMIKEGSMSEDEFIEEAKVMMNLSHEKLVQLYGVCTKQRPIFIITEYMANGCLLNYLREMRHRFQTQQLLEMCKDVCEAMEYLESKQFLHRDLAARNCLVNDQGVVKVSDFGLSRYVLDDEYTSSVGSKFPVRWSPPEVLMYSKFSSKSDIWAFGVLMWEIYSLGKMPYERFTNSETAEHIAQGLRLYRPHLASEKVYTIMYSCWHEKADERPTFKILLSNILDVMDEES

For `COc1cc2c(cc1N1CCN(Cc3ccc4c(c3)C3(CC3)C(=O)N4C3CCC(=O)NC3=O)CC1)[nH]c1ncnc(-c3ccc([C@@H](C)NC(=O)c4nc(C(C)(C)C)no4)c(C)c3)c12` (stereo partly drawn) [Example 76, 3-(tert-butyl)-N-((1R)-1-(4-(7-(4-((1′-(2,6-dioxopiperidin-3-yl)-2′-oxospiro[cyclopropane-1,3′-indolin]-5′-yl)methyl)piperazin-1-yl)-6-methoxy-9H-pyrimido[4,5-b]indol-4-yl)-2-methylphenyl)ethyl)-1,2,4-oxadiazole-5-carboxamide], the IC50 in the experiment on HEK-293 cells is > 10000 nM. For the same compound, it took 1.6 nM to reach half-maximal degradation on BTK (DC50).
As to `COc1cc2c(cc1N1CCN(Cc3ccc4c(c3)C(C)(C)C(=O)N4C3CCC(=O)NC3=O)CC1)[nH]c1ncnc(-c3cc(C)c([C@@H](C)NC(=O)c4nc(C(C)(C)C)no4)cc3F)c12` (stereo partly drawn) [Example 83, 3-(tert-butyl)-N-((1R)-1-(4-(7-(4-((1-(2,6-dioxopiperidin-3-yl)-3,3-dimethyl-2-oxoindolin-5-yl)methyl)piperazin-1-yl)-6-methoxy-9H-pyrimido[4,5-b]indol-4-yl)-5-fluoro-2-methylphenyl)ethyl)-1,2,4-oxadiazole-5-carboxamide], the IC50 with HEK-293 cells was > 10000 nM. In addition, the DC50 (commonly the concentration giving 50% degradation) at BTK came to 2.42 nM.
On to `Cc1cc(N2CCC(CN3CCN(c4ccc5c(c4)[nH]c4ncnc(-c6ccc([C@@H](C)NC(=O)c7noc(C(C)(C)C)n7)c(C)c6F)c45)CC3)CC2)ccc1N1CCC(=O)NC1=O` [Example 28, (R)-5-(tert-butyl)-N-(1-(4-(7-(4-((1-(4-(2,4-dioxotetrahydropyrimidin-1(2H)-yl)-3-methylphenyl)piperidin-4-yl)methyl)piperazin-1-yl)-9H-pyrimido[4,5-b]indol-4-yl)-3-fluoro-2-methylphenyl)ethyl)-1,2,4-oxadiazole-3-carboxamide], for which the IC50 in the experiment on HEK-293 cells is > 10000 nM. Besides, it took 0.309 nM to reach half-maximal degradation on BTK (DC50).
Take `COc1cc2c(cc1N1CCN(CC3CCN(c4ccc(N5CCC(=O)NC5=O)cc4)CC3)CC1)[nH]c1ncnc(-c3cc(C)c([C@@H](C)NC(=O)c4nc(C(C)(C)C)no4)cc3F)c12` [Example 62, (R)-3-(tert-butyl)-N-(1-(4-(7-(4-((1-(4-(2,4-dioxotetrahydropyrimidin-1(2H)-yl)phenyl)piperidin-4-yl)methyl)piperazin-1-yl)-6-methoxy-9H-pyrimido[4,5-b]indol-4-yl)-5-fluoro-2-methylphenyl)ethyl)-1,2,4-oxadiazole-5-carboxamide]: the IC50 in the experiment with HEK-293 cells was > 10000 nM. Further, the DC50 on BTK came to 0.414 nM.
On the same counts, the results for `Cc1cc(-c2ncnc3[nH]c4cc(N5CCN([C@H]6C[C@@H](c7ccc(N[C@H]8CCC(=O)NC8=O)cc7)C6)CC5)ccc4c23)ccc1[C@@H](C)NC(=O)c1nc(C2(C)CC2)no1` [Example 120, N—((R)-1-(4-(7-(4-((1R,3s)-3-(4-(((S)-2,6-dioxopiperidin-3-yl)amino)phenyl)cyclobutyl)piperazin-1-yl)-9H-pyrimido[4,5-b]indol-4-yl)-2-methylphenyl)ethyl)-3-(1-methylcyclopropyl)-1,2,4-oxadiazole-5-carboxamide] are > 10000 nM and 1.25 nM.
For the compound `Cc1c([C@@H](C)NC(=O)c2noc(C(C)(C)C)n2)ccc(-c2ncnc3[nH]c4cc(N5CCC(CN6CCC(c7ccc(C8CCC(=O)NC8=O)cc7)CC6)CC5)ccc4c23)c1F` (stereo partly drawn) [Example 36, 5-(tert-butyl)-N-((1R)-1-(4-(7-(4-((4-(4-(2,6-dioxopiperidin-3-yl)phenyl)piperidin-1-yl)methyl)piperidin-1-yl)-9H-pyrimido[4,5-b]indol-4-yl)-3-fluoro-2-methylphenyl)ethyl)-1,2,4-oxadiazole-3-carboxamide], the IC50 with HEK-293 cells is 3410 nM. For the same compound, the DC50 on BTK amounted to 0.804 nM.
On the same counts, the results for `Cc1c([C@@H](C)NC(=O)c2noc(C(C)(C)C)n2)ccc(-c2ncnc3[nH]c4cc(N5CCN(Cc6cccc7c6C(C)(C)C(=O)N7C6CCC(=O)NC6=O)CC5)ccc4c23)c1F` (stereo partly drawn) [Example 84, 5-(tert-butyl)-N-((1R)-1-(4-(7-(4-((1-(2,6-dioxopiperidin-3-yl)-3,3-dimethyl-2-oxoindolin-4-yl)methyl)piperazin-1-yl)-9H-pyrimido[4,5-b]indol-4-yl)-3-fluoro-2-methylphenyl)ethyl)-1,2,4-oxadiazole-3-carboxamide] are > 10000 nM and 8.15 nM.
Take `COc1cc2c(cc1N1CCN(C3CC(c4ccc([C@@H]5CCC(=O)NC5=O)cc4)C3)CC1)[nH]c1ncnc(-c3ccc([C@@H](C)NC(=O)c4noc(C(C)(C)C)n4)c(C)c3F)c12` (stereo partly drawn) [Example 59, 5-(tert-butyl)-N—((R)-1-(4-(7-(4-(3-(4-((S)-2,6-dioxopiperidin-3-yl)phenyl)cyclobutyl)piperazin-1-yl)-6-methoxy-9H-pyrimido[4,5-b]indol-4-yl)-3-fluoro-2-methylphenyl)ethyl)-1,2,4-oxadiazole-3-carboxamide]: the IC50 in the experiment on HEK-293 cells was > 10000 nM. This compound also came in with a DC50 at BTK of 4.55 nM.
`Cc1cc(-c2ncnc3[nH]c4cc(N5CCN(CC6CCN(c7ccc(N8CCC(=O)NC8=O)c(C)c7)CC6)CC5)ccc4c23)c(F)cc1[C@@H](C)NC(=O)c1noc(C(C)(C)C)n1` [Example 24, (R)-5-(tert-butyl)-N-(1-(4-(7-(4-((1-(4-(2,4-dioxotetrahydropyrimidin-1(2H)-yl)-3-methylphenyl)piperidin-4-yl)methyl)piperazin-1-yl)-9H-pyrimido[4,5-b]indol-4-yl)-5-fluoro-2-methylphenyl)ethyl)-1,2,4-oxadiazole-3-carboxamide]: in the experiment with HEK-293 cells, the IC50 was > 10000 nM. For the same compound, on BTK, it took 0.47 nM to reach half-maximal degradation (DC50).
On the same counts, the results for `Cc1cc2c(cc1N1CCN(CC3CCN(c4ccc(N5CCC(=O)NC5=O)cc4)CC3)CC1)[nH]c1ncnc(-c3ccc([C@@H](C)NC(=O)c4noc(C(C)(C)C)n4)c(C)c3F)c12` [Example 45, (R)-5-(tert-butyl)-N-(1-(4-(7-(4-((1-(4-(2,4-dioxotetrahydropyrimidin-1(2H)-yl)phenyl)piperidin-4-yl)methyl)piperazin-1-yl)-6-methyl-9H-pyrimido[4,5-b]indol-4-yl)-3-fluoro-2-methylphenyl)ethyl)-1,2,4-oxadiazole-3-carboxamide] are > 10000 nM and 1.05 nM.
On the same counts, the results for `COc1cc2c(cc1N1CCN(CC3CCN(c4ccc(N5CCC(=O)NC5=O)cc4)CC3)CC1)[nH]c1ncnc(-c3ccc([C@@H](C)NC(=O)c4noc(C(C)(C)C)n4)c(C)c3F)c12` [Example 58, (R)-5-(tert-butyl)-N-(1-(4-(7-(4-((1-(4-(2,4-dioxotetrahydropyrimidin-1(2H)-yl)phenyl)piperidin-4-yl)methyl)piperazin-1-yl)-6-methoxy-9H-pyrimido[4,5-b]indol-4-yl)-3-fluoro-2-methylphenyl)ethyl)-1,2,4-oxadiazole-3-carboxamide] are > 10000 nM and 1.87 nM.
On the same counts, the results for `Cc1cc(-c2ncnc3[nH]c4cc(N5CCN(CC6CCN(c7ccc(N8CCC(=O)NC8=O)cc7)CC6)CC5)c(C)cc4c23)ccc1[C@@H](C)NC(=O)c1nc(C(C)(C)C)no1` [Example 43, (R)-3-(tert-butyl)-N-(1-(4-(7-(4-((1-(4-(2,4-dioxotetrahydropyrimidin-1(2H)-yl)phenyl)piperidin-4-yl)methyl)piperazin-1-yl)-6-methyl-9H-pyrimido[4,5-b]indol-4-yl)-2-methylphenyl)ethyl)-1,2,4-oxadiazole-5-carboxamide] are > 10000 nM and 1.22 nM.
